Experimental data: patent US10105384B2, “Nucleic acids targeting TCTP for use in the treatment of chemo- or hormone-resistant cancers” (INSTITUT NATIONAL DE LA SANTE ET DE LA RECHERCHE MEDICALE …, priority 2010, dated 2018)
d = 2'-deoxy (DNA); r = 2'-OH (RNA)

How the values were obtained:
Type in all cases: cell-based, human
TCTP [1] = assay: TCTP mRNA and protein expression tests in LNCaP and PC3 cells
Procedure: TCTP mRNA and protein expression tests were carried out in LNCaP and PC3 cells exposed to a TCTP ASO of SEQ ID NO: 2 or a TCTP siRNA of SEQ ID NO: 3.

TCTP [2] = assay: TCTP protein level by Western blot in PC-3 cells treated with siRNA or ASO
Procedure: Western Blot analysis was performed as described previously (Rocchi et al., 2004, Cancer Res. 64:6595-602) with 1:5000 rabbit anti-Hsp27 polyclonal antibody (Assay Designs, Villeurbanne, France), 1:2000 rabbit TCTP polyclonal antibody (Abcam Inc., Cambridge, UK), 1:250 rabbit anti-MSL1v1 polyclonal antibody (Abcam Inc.), 1:500 mouse anti-ubiquitin monoclonal antibody (Santa Cruz Biotechnology Inc., Heidelberg, Germany) or 1:1000 rabbit anti-caspase-3 polyclonal antibody (Cell Signalling Technology Inc., Danvers, USA). Loading levels were normalized using 1:5000 rabbit anti-glyceraldehyde-3-phosphate dehydrogenase polyclonal (Abcam Inc.) or 1:2500 mouse anti-vinculine monoclonal antibodies (Sigma Chemical Co., St Louis, Mo., USA). […]
To determine whether the inhibition of TCTP expression affects CR progression in vitro, ASO- or siRNA-induced inhibition of TCTP expression was determined by Western blot analysis. […] Total RNA was extracted and TCTP levels were analyzed by qRT-PCR. After the normalization of TCTP mRNA with 18S rRNA levels, results were analysed with the 2(-Delta Delta C(T)) Method (FIG. 5A). Each sample was analyzed in triplicate. ** differs from PC-3 transfected with control-siRNA (P≤0.01) and *** with ASO control (P≤0.001) using Statview software.

PC-3 cells [3] = assay: Flow cytometry of propidium iodide-stained nuclei (apoptosis, cell cycle), PC-3 cells
Procedure: Flow cytometry of propidium iodide-stained nuclei was performed as described previously (Rocchi et al., 2004, Cancer Res. 64:6595-602). In brief, PC-3 cells were plated at the density of 10^6 cells into 10 cm dishes in DMEM supplemented with 10% FCS. To assess the effect of TCTP inhibition on apoptosis and cell cycle, cells were treated the day after seeding with 5 nM of siRNA TCTP or control and 100 nM of ASO TCTP or scrambled control for 48 h. Cells were then treated with 50 nM of docetaxel. After 24 h, the cells were analyzed for relative DNA content on a dual laser flow cytometer (FACSCalibur, Becton Dickinson Biosciences, Le Pont de Claix, France). Each assay was performed in triplicate.
(§1) Flow cytometry was used to quantify the percentage of cells in each cell cycle phase three days after the siRNA treatment. After the treatment of PC-3 cells with 5 nM TCTP siRNA for 1 day, the fraction of cells undergoing apoptosis (sub-G1/G0 fraction) was 25% higher after treatment with 5 nM TCTP siRNA compared with scrambled control siRNA (**, P≤0.01; FIG. 6, upper panel). Using TCTP ASO treatment alone, we found an increase of 75% in sub-G0G1 fraction (***, P≤0.001; FIG. 6, middle and bottom panel), enhanced by the 50 nM docetaxel treatment (90% in sub-G0-G1 fraction, ***, P≤0.001). […] The fraction of PC-3 in S phase was 20 to 40% lower after TCTP siRNA or ASO treatments respectively compared to the scrambled controls (FIG. 6). […] The rate of apoptotic PC-3 cells after TCTP silencing with different ASO concentrations was explored with the Invitrogen countess (FIG. 6 and FIG. 7A). PC-3 cells were treated with 70, 100 or 200 nM of TCTP ASO or control. Cells were harvested 3 days after treatment and […] of trypan blue was added before analysis with Invitrogen Countess. […] Moreover, TCTP has been reported to interact with caspase-3, thereby inhibiting caspase-3 activation (Gnanasekar et al., 2009, Int J Oncol. 34:1241-6). In order to investigate the effect of TCTP silencing on caspase-3 cleavage and activity, PC-3 cells were treated daily with 100 nM TCTP or scrambled ASO for 2 days. Cells were harvested 2 days after and proteins were extracted for western blotting with a caspase-3 antibody that recognizes both full-length and cleaved caspase-3.
PC3 cells were transfected with a TCTP siRNA of SEQ ID NO: 3. Cell proliferation and apoptosis were studied using respectively MTT (3-(4,5-dimethylthiazol-2-yl)-2,5-diphenyl tetrazolium bromure) assay and flow cytometry.
PC3 cells were transfected with a TCTP ASO of SEQ ID NO: 2. Cell proliferation and apoptosis were studied using respectively MTT assay and flow cytometry.

PC-3 cells [4] = assay: Viability assay by Invitrogen Countess (trypan blue), PC-3 cells
Procedure: PC-3 cells were treated with 70, 100 or 200 nM of TCTP ASO or control. 3 days after, the cells were harvested, combined with 10 μl of trypan blue and counted with Invitrogen Countess. Viability, cell concentration and size were recorded for each sample following the manufacturer's instructions.
as §1

caspase-3 = assay: Caspase-3 cleavage by western blot in PC-3 cells; details: not in control treated cells
Procedure: Western Blot analysis was performed as described previously (Rocchi et al., 2004, Cancer Res. 64:6595-602) with 1:5000 rabbit anti-Hsp27 polyclonal antibody (Assay Designs, Villeurbanne, France), 1:2000 rabbit TCTP polyclonal antibody (Abcam Inc., Cambridge, UK), 1:250 rabbit anti-MSL1v1 polyclonal antibody (Abcam Inc.), 1:500 mouse anti-ubiquitin monoclonal antibody (Santa Cruz Biotechnology Inc., Heidelberg, Germany) or 1:1000 rabbit anti-caspase-3 polyclonal antibody (Cell Signalling Technology Inc., Danvers, USA). Loading levels were normalized using 1:5000 rabbit anti-glyceraldehyde-3-phosphate dehydrogenase polyclonal (Abcam Inc.) or 1:2500 mouse anti-vinculine monoclonal antibodies (Sigma Chemical Co., St Louis, Mo., USA).
Flow cytometry was used to quantify the percentage of cells in each cell cycle phase three days after the siRNA treatment. After the treatment of PC-3 cells with 5 nM TCTP siRNA for 1 day, the fraction of cells undergoing apoptosis (sub-G1/G0 fraction) was 25% higher after treatment with 5 nM TCTP siRNA compared with scrambled control siRNA (**, P≤0.01; FIG. 6, upper panel). Using TCTP ASO treatment alone, we found an increase of 75% in sub-G0G1 fraction (***, P≤0.001; FIG. 6, middle and bottom panel), enhanced by the 50 nM docetaxel treatment (90% in sub-G0-G1 fraction, ***, P≤0.001). […]

Row | Substance | expression of TCTP (mRNA and protein) (TCTP [1]) | inhibition of TCTP protein (TCTP [2]; siRNA at 5 nM) | fraction of cells undergoing apoptosis (sub-G1/G0 fraction) higher than scrambled control siRNA (PC-3 cells [3]; PC-3, 5 nM siRNA for 1 day) [%] | increase of the percentage of apoptotic cells (PC-3 cells [3]; TCTP siRNA, PC3, flow cytometry (summary, FIG. 12)) [%] | fraction of PC-3 in S phase lower than scrambled control (PC-3 cells [3]; siRNA treatment) [%] | rate of apoptotic cells (PC-3 cells [4]; PC-3, TCTP siRNA) | active cleaved caspase-3 fragments (17-20 kDa) (caspase-3) | inhibition of TCTP protein (TCTP [2]; ASO at 100 nM) | fraction of PC-3 in S phase lower than scrambled control (PC-3 cells [3]; ASO treatment) [%] | increase in sub-G0-G1 fraction (PC-3 cells [3]; PC-3, TCTP ASO plus 50 nM docetaxel) [%] | increase in sub-G0G1 fraction (PC-3 cells [3]; PC-3, TCTP ASO treatment alone) [%] | increase of the percentage of apoptotic cells (PC-3 cells [3]; TCTP ASO, PC3, flow cytometry (summary, FIG. 13)) [%] | rate of apoptotic cells (PC-3 cells [4]; PC-3, 70 nM ASO, three days after transfection) [%] | rate of apoptotic cells (PC-3 cells [4]; PC-3, 100 nM ASO, three days after transfection) [%] | rate of apoptotic cells (PC-3 cells [4]; PC-3, 200 nM ASO, three days after transfection) [%]
1 | 5′-AACCCGUCCGCGAUCUCCCdGdG-3′ (AACCCGUCCGCGAUCUCCCGG; siRNA; sugars from the 5' end r19 d2, backbone not given here) [TCTP siRNA, from Qiagen] | decreases in a significant manner | significant inhibition | 25 | 25.8 | 20 | Same effects | presence of active cleaved caspase-3 fragments |  |  |  |  |  |  |  | 
2 | 5′-ACCAATGAGCGAGTCATCAA-3′ (phosphorothioate backbone, further chemistry not given here) [ASO10] | decreases in a significant manner |  |  |  |  |  | presence of active cleaved caspase-3 fragments | significant inhibition | 40 | 90 | 75 | 70 | 100 | 200 | 300
